Several values for one entry are separate records, joined by “and”; a condition that tells them apart may be missing. Identical values can stand only once. Counter-ions that a name gives are not always drawn. Like-named read-outs stand apart in the source and are kept apart here.
Assays:
[1] = system: melanoma cell line B16/F10 tumors
[2] = system: melanoma cell line B16/F10; experiment: Drug sensitivity in an in vitro tumor model; format: cell-based; conditions: vs cisplatin and 5-FU, even at 0.1 μg/mL
Source text: The B16/F10 cells were cultivated in the presence of different concentrations of DOX, cisplatin and 5-FU.

Compound	Number of Mice Survived, 28 days ([1]; mouse, in vivo)	early death after injection ([1]; mouse, in vivo)	Number of Mice Survived, 42 days ([1]; mouse, in vivo, hydrochloride)	Tumor Volume After Tumor Injection, 28 days ([1]; treatment injected Day 3 (3d))	Tumor Volume After Tumor Injection, 42 days ([1]; treatment injected Day 3 (3d))	Tumor Volume After Tumor Injection, 28 days ([1]; treatment injected Day 7 (7d))	Tumor Volume After Tumor Injection, 42 days ([1]; treatment injected Day 7 (7d))	inhibitory effect on the cell culture [2]
COc1cccc2c1C(=O)c1c(O)c3c(c(O)c1C2=O)C[C@@](O)(C(=O)CO)C[C@@H]3O[C@H]1C[C@H](N)[C@H](O)[C@H](C)O1 [Bolus Dox, doxorubicin hydrochloride]	8	did not produce early death	5 and 3	1218.9 ± 304.1 mm^3	3942.5 ± 1818 mm^3	1661.2 ± 301.8 mm^3	4394.3 ± 741.3 mm^3	–
COc1cccc2c1C(=O)c1c(O)c3c(c(O)c1C2=O)C[C@@](O)(C(=O)CO)C[C@@H]3O[C@H]1C[C@H](N)[C@H](O)[C@H](C)O1 [DOX, doxorubicin]	–	–	–	–	–	–	–	strongest inhibitory effect
